Test results published in patent publication US20240383870A1, “HETEROCYCLIC ALDEHYDE TRAPPING COMPOUNDS AND USES THEREOF” (Aldeyra Therapeutics, Inc., priority 2021, published 2024).

How the values were obtained:
Type in all cases: in vivo
M-CSF (CSF1) = assay: Acute LPS-induced sepsis in C57BL/6 mice: M-CSF (CSF1) cytokine detection assay; conditions: 200 mpk PO; LPS-challenged mice, plasma at 6.5 h; unpaired t-test vs vehicle
Source text: FIG. 24 is a graph showing the results of an M-CSF (CSF1) cytokine detection assay in samples collected from mouse subjects after administration of compounds of the present disclosure. M-CSF causes hematopoietic stem cells to differentiate into macrophages.
(§1) The primary objective of this study was to collect plasma samples of lipopolysaccharide (LPS) challenged C57BL/6 mice after dose of test compounds to provide a cytokine profile as impacted by prophylactic treatments. This study models acute sepsis, which is a systemic inflammatory syndrome initiated by Gram-negative and Gram-positive bacteria and fungi which infect the lungs, abdomen, bloodstream, and renal or genitourinary tracts. Sepsis patients ultimately die of multiorgan failure which is caused by extensive tissue hypo-oxygenation due to ongoing microvascular leakage, disseminated intravascular coagulation, compromised energy production, and metabolic alterations. Sepsis is characterized by an early systemic inflammatory response phase featuring symptoms, such as tachycardia, fever, hyperventilation, and activation of the complement and coagulation cascades. However, it is now appreciated that a compensatory anti-inflammatory response phase follows, characterized by neuroendocrine-mediated immunosuppression. Since these processes are the result of interaction between cells of inflammation and organs, investigation of the treatment of this syndrome requires the use of intact animal models. The use of ten mice per group allows useful statistical modelling of the results.
(§2) For the data shown in Table 2A, 103 mice (female, 18-22 gram, C57BL/6) were purchased from ENVIGO. The mice were housed in 20 cages of 5 mice per cage with 1 cage of 3 mice as extra. The cages had filter tops and autoclaved bedding, and the animals were placed in quarantine with daily inspection. The treatment groups are detailed in Table 2A below. 10 mice were included in each group. The mice were dosed by oral gavage (PO) at 10 ml/kg as per the table below. MC=methyl cellulose.
as §2, with “2B, 185” for “2A, 103”, “37” for “20”, “cage.” for “cage with 1 cage of 3 mice as extra.”, “2B” for “2A”, “(P0)” for “(PO)”
(§3) At T=0 h, the mice were dosed with one of the test compounds as described in the above table.
(§4) At T=0.5 h, the mice were injected IP with 1.5 mg/kg […] (Sigma).
(§5) At T=6.5 h, all mice were anesthetized and exsanguinated into pre-chilled EDTA-treated tubes. The blood was processed to plasma which was stored in labeled 0.5 polypropylene snap-cap tubes (0.5 mL Eppendorf Safe-Lock Tubes (Fisher Scientific) at −80° C.
(§6) Preparation of vehicle: 1.0 gram of methyl cellulose (Sigma) was dissolved in 200 mL of water (USP purified) to make a solution of 0.5% methyl cellulose in water. Preparation of LPS solution: 6 mg of LPS (from Escherichia Coli 055:B5, Cat #L2880, Sigma Lot #057m4013) was dissolved in 20 ml of saline to give a LPS solution of 0.3 mg/ml. All mice were injected with 5 ml/kg (1.5 mg/kg) at the scheduled time by intraperitoneal injection.
(§7) A 32-plex cytokine panel was obtained from Eve Technologies. Each cytokine was assessed based against a 7 point curve range in duplicate. The average of the two replicate analyses was used for statistics. Unpaired t-tests were performed using Excel™ contrasting vehicle against each treatment group. One star indicates P<0.05. Two stars indicates P<0.01. Three stars indicates P<0.001. Four stars indicates P<0.0001. Most, but not all, statistically significant results are indicated with star(s).

IL-3 = assay: Acute LPS-induced sepsis in C57BL/6 mice: IL-3 cytokine detection assay; conditions: 200 mpk PO; LPS-challenged mice, plasma at 6.5 h; unpaired t-test vs vehicle
IL-10 = assay: Acute LPS-induced sepsis in C57BL/6 mice: IL-10 cytokine detection assay; conditions: LPS-challenged mice, plasma at 6.5 h, unpaired t-test vs vehicle
MCP-1(CCL2) = assay: Acute LPS-induced sepsis in C57BL/6 mice: MCP-1(CCL2) cytokine detection assay; conditions: LPS-challenged mice, plasma at 6.5 h, unpaired t-test vs vehicle
MIP2(CXCL2) = assay: Acute LPS-induced sepsis in C57BL/6 mice: MIP2(CXCL2) cytokine detection assay; conditions: LPS-challenged mice, plasma at 6.5 h, unpaired t-test vs vehicle
Source text: FIG. 27 is a graph showing the results of a MIP2(CXCL2) cytokine detection assay in samples collected from mouse subjects after administration of compounds of the present disclosure.
as §1
as §2, with “The mice were dosed by oral gavage (PO) at 10 ml/kg as per the table below.” left out
as §2, with “2B, 185” for “2A, 103”, “37” for “20”, “cage.” for “cage with 1 cage of 3 mice as extra.”, “2B” for “2A”, “(P0)” for “(PO)”
as §3, §4
(§8) At T=6.5 h, all mice were anesthetized and exsanguinated into pre-chilled EDTA-treated tubes. […]
(§9) A 32-plex cytokine panel was obtained from Eve Technologies. Each cytokine was assessed based against a 7 point curve range in duplicate. […]

IL-13 = assay: Acute LPS-induced sepsis in C57BL/6 mice: IL-13 cytokine detection assay; conditions: 200 mpk PO; LPS-challenged mice, plasma at 6.5 h; unpaired t-test vs vehicle
Source text: FIG. 17 is a graph showing the results of an IL-13 cytokine detection assay in samples collected from mouse subjects after administration of compounds of the present disclosure.
as §1, §2
as §2, with “2B, 185” for “2A, 103”, “37” for “20”, “cage.” for “cage with 1 cage of 3 mice as extra.”, “2B” for “2A”, “(P0)” for “(PO)”
as §3, §4, §5, §6
A 32-plex cytokine panel was obtained from Eve Technologies. Each cytokine was assessed based against a 7 point curve range in duplicate. The average of the two replicate analyses was used for statistics. […]

KC = assay: Acute LPS-induced sepsis in C57BL/6 mice: KC cytokine detection assay; conditions: 200 mpk PO; LPS-challenged mice, plasma at 6.5 h; unpaired t-test vs vehicle
Source text: FIG. 20 is a graph showing the results of a KC cytokine detection assay in samples collected from mouse subjects after administration of compounds of the present disclosure.
as §1, §2
as §2, with “2B, 185” for “2A, 103”, “37” for “20”, “cage.” for “cage with 1 cage of 3 mice as extra.”, “2B” for “2A”, “(P0)” for “(PO)”
as §3, §4, §5, §6, §7

IL-6 = assay: Acute LPS-induced sepsis in C57BL/6 mice: IL-6 cytokine detection assay; conditions: 200 mpk PO; LPS-challenged mice, plasma at 6.5 h; unpaired t-test vs vehicle
Source text: FIG. 11 is a graph showing the results of an IL-6 cytokine detection assay in samples collected from mouse subjects after administration of compounds of the present disclosure.
as §1, §2
as §2, with “2B, 185” for “2A, 103”, “37” for “20”, “cage.” for “cage with 1 cage of 3 mice as extra.”, “2B” for “2A”, “(P0)” for “(PO)”
as §3, §4, §8, §9

IL-15 = assay: Acute LPS-induced sepsis in C57BL/6 mice: IL-15 cytokine detection assay; conditions: LPS-challenged mice, plasma at 6.5 h, unpaired t-test vs vehicle
IL-17 = assay: Acute LPS-induced sepsis in C57BL/6 mice: IL-17 cytokine detection assay; conditions: 200 mpk PO; LPS-challenged mice, plasma at 6.5 h; unpaired t-test vs vehicle
Source text: FIG. 19 is a graph showing the results of an IL-17 cytokine detection assay in samples collected from mouse subjects after administration of compounds of the present disclosure.
as §1
as §2, with “The mice were dosed by oral gavage (PO) at 10 ml/kg as per the table below.” left out
as §2, with “2B, 185” for “2A, 103”, “37” for “20”, “cage.” for “cage with 1 cage of 3 mice as extra.”, “2B” for “2A”, “(P0)” for “(PO)”
as §3, §4, §8, §9

TNFα = assay: Acute LPS-induced sepsis in C57BL/6 mice: TNFα cytokine detection assay; conditions: 200 mpk PO; LPS-challenged mice, plasma at 6.5 h; unpaired t-test vs vehicle
Source text: FIG. 29 is a graph showing the results of a TNFα cytokine detection assay in samples collected from mouse subjects after administration of compounds of the present disclosure.
as §1
as §2, with “cellulose. […]” for “cellulose.”
as §9

IL-7 = assay: Acute LPS-induced sepsis in C57BL/6 mice: IL-7 cytokine detection assay; conditions: LPS-challenged mice, plasma at 6.5 h, unpaired t-test vs vehicle
eotaxin = assay: Acute LPS-induced sepsis in C57BL/6 mice: eotaxin cytokine detection assay; conditions: 200 mpk PO; LPS-challenged mice, plasma at 6.5 h; unpaired t-test vs vehicle
[1] = system: leukemia inhibitory factor (LIF); assay: Acute LPS-induced sepsis in C57BL/6 mice: leukemia inhibitory factor (LIF) cytokine detection assay; conditions: 200 mpk PO; LPS-challenged mice, plasma at 6.5 h; unpaired t-test vs vehicle
Source text: FIG. 21 is a graph showing the results of a leukemia inhibitory factor (LIF) cytokine detection assay in samples collected from mouse subjects after administration of compounds of the present disclosure. LIF is an interleukin 6 class cytokine that affects cell growth by inhibiting differentiation.
as §1, §2
as §2, with “2B, 185” for “2A, 103”, “37” for “20”, “cage.” for “cage with 1 cage of 3 mice as extra.”, “2B” for “2A”, “(P0)” for “(PO)”
as §3, §4, §5, §6, §9

MIP-1a(CCL3) = assay: Acute LPS-induced sepsis in C57BL/6 mice: MIP-1a(CCL3) cytokine detection assay; conditions: 100 mpk IP; LPS-challenged mice, plasma at 6.5 h; unpaired t-test vs vehicle
IL-9 = assay: Acute LPS-induced sepsis in C57BL/6 mice: IL-9 cytokine detection assay; conditions: 125 mpk PO; LPS-challenged mice, plasma at 6.5 h; unpaired t-test vs vehicle
Source text: FIG. 13 is a graph showing the results of an IL-9 cytokine detection assay in samples collected from mouse subjects after administration of compounds of the present disclosure.
as §1
as §2, with “cellulose. […]” for “cellulose.”
as §9

## CC(O)(c1sc2ccc(C(F)(F)F)cc2c1N)C(F)(F)F (stereo not shown) [Compound I-16, 2-(3-Amino-5-(trifluoromethyl)benzo[b]thiophen-2-yl)-1,1,1-trifluoropropan-2-ol]
M-CSF (CSF1)
  M-CSF: significant cytokine change vs. vehicle: **** (Four stars indicates P<0.0001)
IL-3
  IL-3: significant cytokine change vs. vehicle: * (One star indicates P<0.05)
IL-10; 200 mpk PO
  IL-10: significant cytokine change vs. vehicle: ** (Two stars indicates P<0.01)
MCP-1(CCL2); 200 mpk PO
  MCP-1: significant cytokine change vs. vehicle: * (One star indicates P<0.05)

## CC(O)(c1sc2cccc(Br)c2c1N)C(F)(F)F (stereo not shown) [Compound I-2, 2-(3-amino-4-bromobenzo[b]thiophen-2-yl)-1,1,1-trifluoropropan-2-ol]
MIP2(CXCL2); 200 mpk PO
  MIP-2: significant cytokine change vs. vehicle: *** (Three stars indicates P<0.001)
IL-13
  IL-13: significant cytokine change vs. vehicle: **** (Four stars indicates P<0.0001)
KC
  KC: significant cytokine change vs. vehicle: *** (Three stars indicates P<0.001)
IL-6
  IL-6: significant cytokine change vs. vehicle: **** (Four stars indicates P<0.0001)
IL-15; 200 mpk PO
  IL-15: significant cytokine change vs. vehicle: ** (Two stars indicates P<0.01)
IL-17
  IL-17: significant cytokine change vs. vehicle: *** (Three stars indicates P<0.001)
TNFα
  TNFa: significant cytokine change vs. vehicle: **** (Four stars indicates P<0.0001)
IL-7; 200 mpk PO
  IL-7: significant cytokine change vs. vehicle: ** (Two stars indicates P<0.01)
eotaxin
  Eotaxin: significant cytokine change vs. vehicle: ** (Two stars indicates P<0.01)
[1]
  LIF: significant cytokine change vs. vehicle: ** (Two stars indicates P<0.01)
MCP-1(CCL2); 200 mpk PO
  MCP-1: significant cytokine change vs. vehicle: *** (Three stars indicates P<0.001)

## CC(C)(O)c1cc(F)c(F)cc1N [Compound I-27, 2-(2-Amino-4,5-difluorophenyl) propan-2-ol]
KC
  KC: significant cytokine change vs. vehicle: * (One star indicates P<0.05)

## CC(O)(c1cccc2[nH]nc(N)c12)C(F)(F)F (stereo not shown) [Compound I-9, 2-(3-amino-1H-indazol-4-yl)-1,1,1-trifluoropropan-2-ol]
MIP2(CXCL2); 100 mpk IP
  MIP-2: significant cytokine change vs. vehicle: * (One star indicates P<0.05)
IL-15; 100 mpk IP
  IL-15: significant cytokine change vs. vehicle: ** (Two stars indicates P<0.01)
IL-10; 100 mpk IP
  IL-10: significant cytokine change vs. vehicle: **** (Four stars indicates P<0.0001)
IL-7; 100 mpk IP
  IL-7: significant cytokine change vs. vehicle: *** (Three stars indicates P<0.001)
MIP-1a(CCL3)
  MIP-1a: significant cytokine change vs. vehicle: ** (Two stars indicates P<0.01)
MCP-1(CCL2); 100 mpk IP
  MCP-1: significant cytokine change vs. vehicle: * (One star indicates P<0.05)

## COc1ccc2c(c1)NC(=O)[C@@H](CO)N2 [Compound I-7, (R)-3-(Hydroxymethyl)-7-methoxy-3,4-dihydroquinoxalin-2(1H)-one]
M-CSF (CSF1)
  M-CSF: significant cytokine change vs. vehicle: *** (Three stars indicates P<0.001)
KC
  KC: significant cytokine change vs. vehicle: * (One star indicates P<0.05)
IL-6
  IL-6: significant cytokine change vs. vehicle: * (One star indicates P<0.05)
TNFα
  TNFa: significant cytokine change vs. vehicle: * (One star indicates P<0.05)
MCP-1(CCL2); 200 mpk PO
  MCP-1: significant cytokine change vs. vehicle: * (One star indicates P<0.05)

## CC(C)(O)c1cc2c(cc1N)OCCO2 [Compound I-26, 2-(7-Amino-2,3-dihydrobenzo[b] [1,4]dioxin-6-yl) propan-2-ol]
IL-9
  IL-9: significant cytokine change vs. vehicle: * (One star indicates P<0.05)
